Measurements reported in ChEMBL document CHEMBL1201862, “PubChem BioAssay data set” (2004).
Where “and” joins values, the source holds several entries; their conditions need not be identical. Identical values can stand only once. Calls of active or inactive are those of the source.

Assays:
[1] = target: T1, Serine/threonine-protein phosphatase (Homo sapiens, UniProt Q9BPW0); test: PP5 phosphatase inhibitors, dose response, biochemical, fluorescence (AID 2395)
T1 sequence (Q9BPW0 whole entry): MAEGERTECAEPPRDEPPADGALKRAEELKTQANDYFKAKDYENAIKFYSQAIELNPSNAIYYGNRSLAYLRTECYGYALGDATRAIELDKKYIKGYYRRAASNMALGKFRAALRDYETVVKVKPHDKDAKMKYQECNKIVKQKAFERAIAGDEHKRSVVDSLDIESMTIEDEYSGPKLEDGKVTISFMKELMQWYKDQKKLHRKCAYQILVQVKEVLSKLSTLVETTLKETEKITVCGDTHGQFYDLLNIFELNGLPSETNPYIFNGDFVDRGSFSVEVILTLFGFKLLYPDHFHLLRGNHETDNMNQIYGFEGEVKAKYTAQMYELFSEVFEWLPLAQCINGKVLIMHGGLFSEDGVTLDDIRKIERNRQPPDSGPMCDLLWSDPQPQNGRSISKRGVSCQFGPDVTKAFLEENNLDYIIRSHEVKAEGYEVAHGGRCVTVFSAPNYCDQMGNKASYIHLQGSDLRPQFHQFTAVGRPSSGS

[2] = target: T2, Zinc finger protein mex-5 (Caenorhabditis elegans, UniProt Q9XUB2); test: MEX-5/TCR-2 RNA interaction inhibitors, dose response, biochemical, C. elegans, fluorescence polarization (AID 1960)
T2 sequence (Q9XUB2 whole entry): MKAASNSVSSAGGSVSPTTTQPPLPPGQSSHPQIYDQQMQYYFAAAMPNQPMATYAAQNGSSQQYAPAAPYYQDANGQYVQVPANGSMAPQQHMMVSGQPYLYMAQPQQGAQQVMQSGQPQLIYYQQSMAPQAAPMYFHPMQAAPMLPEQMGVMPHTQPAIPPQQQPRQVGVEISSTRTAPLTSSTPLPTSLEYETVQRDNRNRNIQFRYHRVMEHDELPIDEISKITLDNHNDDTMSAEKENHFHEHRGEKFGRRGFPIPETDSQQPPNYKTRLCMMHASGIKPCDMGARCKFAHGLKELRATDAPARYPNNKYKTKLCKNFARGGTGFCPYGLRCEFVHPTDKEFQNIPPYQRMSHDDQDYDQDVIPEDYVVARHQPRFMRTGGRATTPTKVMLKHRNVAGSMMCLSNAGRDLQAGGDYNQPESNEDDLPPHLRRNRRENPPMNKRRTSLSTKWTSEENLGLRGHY

[3] = inhibitors of intracellular T. cruzi replication, confirmation, NIH3T3 host cells, beta-gal luminescence (AID 2044); format: functional, cell-based;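 further: intracellular parasites grown in NIH/3T3 mouse fibroblasts as host cells; luminescent beta-galactosidase reporter signal from transgenic T. cruzi replicating inside host cells; inhibitors lower the luminescence signal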
[4] = inhibitors of HIV Env-driven cell fusion, dose response, cherry-pick (AID 652057); format: functional, cell-based
[5] = CEM21 lymphoblast cell cytotoxicity, dose response, cytotoxicity control for viral fusion inhibitor project, CellTiter-Glo luminescence, cherry-picked (AID 652042); format: functional, cell-based;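 further: potency for signal decrease meaning cytotoxicity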
[6] = growth suppression of beta-catenin-knockout colon cells, dose response, cell-based, HCT116, human colon tumor (AID 1045); format: functional;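 further: HCT116 colon tumor cells with beta catenin knocked out; cells exposed to compound for 60 hours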

O=C(NC1(O)C(=O)c2ccccc2C1=O)c1ccccc1
IC50 [1]: > 0.828 µM (active)

CCCCCCCCCCCCCCCCn1cc[n+](C)c1
EC50 [2]: > 300 µM (inconclusive)
EC50 [3]: < 100 nM (active) and 103 nM (active)
AC50 [4]: 22 µM (active)
AC50 [5]: 5.2 µM (active)

Cc1cc(C)nc(/N=c2/ssnc2Cl)c1
EC50 [6]: 25.8 µM (active)
